Assay results published in US6214859A, “Ethylamine derivatives” (Fujimoto Brothers Co., Ltd., priority 1997, dated 2001).

Columns and labels:
[1] = system: monoamine release from synaptosomes; assay: Releasing effect of monoamines in synaptosomes of the rat brain; conditions: compound 5×10^-5 M with tyramine 10^-6 M (FIG. 9)
Method: Synaptosomes were prepared as follows. Fresh striatum (for determination of dopamine) and fresh forebrain (for determination of noradrenaline and serotonin) were removed from listar rats of 8 weeks old (NIPPON S. L. C.). Ten times volumes of ice-cold 0.35 M sucrose (pH 7.4) were added in the brain tissue and homogenized using glass homogenizer with teflon pestle which was revolted by motors. Thereafter the homogenate was centrifuged at 900×g for 10 min at 4° C. and the supernatant was recentrifuged at 11,500×g for 20 min. The pellet was resuspeded in ice-cold buffer. Final concentration of synaptosomes was prepared to 0.6 mg protein/ml. Protein concentration was determined by method described in Journal of Biological Chemistry, 193, 265-275 (1951) and the bovine serum albumin was used as an authentic standard. The release of monoamine from synaptosomes was determined by the following procedure based on the method described in Journal of Pharmacology and Experimental Therapeutics, 241, 27-33 (1987). The solution of 0.6 mg/ml of synaptosomes was preincubated for 5 min at 35° C. under the oxygenated (95% O2 and 5% CO2) condition. Thereafter 25 nM ^3 H-monoamines were added in synaptosomal solution and the solutions were incubated for 5 min at 35° C. […]

[2] = biological target: α1 receptor; assay: Affinity to α1 receptor; parameters: species or system rat; conditions: read-out: Affinity to α1 receptor (MIC50; mole concentration for 50% inhibition of binding); 0.25 nM ^3H-prazocin; 90 min
Method: The solution of receptor was prepared as follows. As soon as rats were decapitated, brain was removed and its weight was measured. Its brain was homogenized in ten times volumes of ice-cold 0.35 M sucrose (pH 7.4) by glass homogenizer with teflon pestle which was revolted by motors. Thereafter, the homogenate was centrifuged at 4° C. at 900×g for 10 min and the supernatant was, furthermore, recentrifuged at 4° C. at 22,000×g for 20 min. The precipitate was suspended by addition of 5 mM phosphate buffer solution (pH 7.4). After the suspension was incubated at 37° C. for 30 min, the suspension was recentrifuged at 4° C. at 22,000×g for 20 min. The precipitate was resuspended by addition of 10 ml of 5 mM phosphate buffer solution (pH 8.0). The precipitate was used as the solution of receptor.
^3 H-prazocin was used as a ligand. 0.25 nM ^3 H-prazocin in 5 mM phosphate buffer (pH 8.0), the compound of this invention and the solution of receptor were added in tube and the mixture were incubated at 25° C. for 90 min. In addition, the […] binding was shown by binding value of ^3 H-prazocin under the coexistence with 0.1 μM prazocin. The binding reaction was carried out as follows. After ^3 H-prazocin (binding type: B) bound to receptor using glassfiberfilter (pore size: 0.5 μm, Whatman GF/C.) and free type of prazocin (free type: F) were separated with B/F separator (Brandel, USA), only the binding type of ^3 H-prazocin was collected. The binding type of ^3 H-prazocin absorbed to glass-fiber filter was washed with ice-cold saline solution and was remove to vial. After 10 ml of scintillation cocktail was added in it, the radioactivity was determined. From the binding inhibition rate of α1 receptor and ligand, affinity of the compounds of this invention to α1 receptor was measured.
If affinity of certain compound to a receptor is high, the binding ligand and receptor is inhibited.

[3] = biological target: 5-HT1 receptor; assay: Affinity to 5-HT1 receptor; parameters: species or system rat; conditions: read-out: Affinity to 5-HT1 receptor (MIC50; mole concentration for 50% inhibition of binding); 2 nM ^3H-5-HT

| SMILES | antagonism against the effect of tyramine [1] | IC50 [2] | IC50 [3] |
| --- | --- | --- | --- |
| CCCNC(CCC)Cc1ccc2c(c1)OCO2.Cl (stereo not drawn) [Compound No. 27, 1-(1,3-Benzodioxol-5-yl)-2-propylaminopentane Hydrochloride] | Tyramine antagonistic property |  |  |
| CCCNC(CCC)Cc1c[nH]c2ccccc12.Cl (stereo not drawn) [Compound No. 20, 1-(Indol-3-yl)-2-propylaminopentane Hydrochloride] |  | 80 µM | 7 µM |
